Assay results: patent publication US20230346769A1, “USE OF SIMPLE ACYCLIC POLYAMINES FOR THE TREATMENT OF DISEASES CAUSED BY PARASITES OF THE GENUS LEISHMANIA” (Universidad De Granada, priority 2020, published 2023)

Legend:
[1] = system: L. braziliensis promastigote forms; assay: In vitro activity against extracellular (promastigote) forms; type: cell-based, Leishmania braziliensis; settings: for Selectivity Index (SI) L. brazilensis Promastigote forms: IC50 of macrophages / IC50 of parasite form; for IC50: Leishmania braziliensis, 72 h
Text: (§1) Methodology: Cultures of three Leishmania species, representative of the species causing each of the clinical forms of the disease, were used for these studies. Specifically, strains MCAN/ES/2001/UCM-1 O of L.infantum, isolated and characterised in Madrid from an infected dog; MHOM/BR/1975/M2904 of L.braziliensis, isolated in Brazil in a human case, and LCR-L 133 LRC of L.donovani. isolated in Jerusalem, Israel from a case of kala-azar […] (WHO Technical Reports Series 949. Geneva: WHO. March. The cultures of parasites come from an own collection which was prepared from a biobank project (Biobank and Characterisation Unit of Strains and Species of Trypanosomatids, Responsible for Human, Animal and Plant Pathologies, Cgl-2008-03687-E/Bos.), and are available on request.
(§2) The promastigote forms of the three species studied were cultured in vitro in sterility in single-phase MTL culture medium (Medium Trypanosomes Liquid) made from Hank’s Balanced Salts (Sigma-Aldrich, H6136) enriched with 10% (v/v) of Fetal Bovine Serum (SBF-1) inactivated at 56° C./ 30 minutes. The parasite inoculum to initiate the culture was 5 × 10^4 cells/ml in 5 ml medium in 25 cm^2 Falcon® plastic flasks and kept in an oven at 28° C. The cultures were performed routinely, achieving exponential growth of the flagellates until obtaining the cell mass necessary for the subsequent studies. Both promastigote forms and amastigote forms were used to conduct the assays.
(§3) The promastigote forms of the three Leishmania strains, cultured in the manner described above, were harvested in their exponential growth phase by centrifugation at 400 g for 10 min. The number of parasites was counted in a Neubauer Haemocytometer Counting Chamber and were inoculated in a 24-well plate at a concentration of 5 ×10^4 parasites/well.
(§4) The compounds to be assayed were dissolved in DMSO at a concentration of 0.01% (v/v), concentration at which this solvent is not toxic nor has any effect on the growth of parasites. The compounds were added to the culture medium at final concentrations of 100, 50, 25 and 12.5 µM. […] M. et al. Med. Chem. 2011. 54. 970-979].

[2] = system: L. braziliensis amastigote forms; assay: In vitro activity against intracellular (amastigote) forms in macrophages; type: cell-based, Leishmania braziliensis; settings: for Selectivity Index (SI) L. brazilensis Amastigote forms: IC50 of macrophages / IC50 of parasite form; for IC50: Leishmania braziliensis, Macrophage, 72 h
Text: as §1
(§5) For the study of the in vitro effect on intracellular forms of Leishmania, the experimental model designed by the group of the present inventors was used [Sánchez-Moreno. M. et al. Med. Chem. 2012, 55, 9900-9913; Sánchez-Moreno. M. et al. J. Antimicrob. Chemother. 2012, 67, 387-397]. The macrophages were detached from the culture flask where they were attached by dry blows. To do this, it was incubated in cold for 5 minutes and after that the flask was hit with the palm of the hand until the cells were detached from the flask. Then, they were passed to a 25 ml capacity steriling conical bottom flask (Deltalab) to centrifuge them at 120 g for 5 minutes, removing the supernatant and were counted in Neubauer’s chamber. Cells were suspended in RPMI medium at a concentration of 1×10^4 cells/well, then cultured in 24-well plates into which a 12 mm round slide had previously been placed into each well. For adherence, the cells were left 24 h at 37° C. in 5% CO2. Subsequently, the cells were infected in vitro by placing Leishmania cells at the rate of 10 parasites/macrophage according to [Sánchez-Moreno. M et al. Med. Chem. 2011, 54, 970-979]. […] The products were allowed to act for 72 hours of incubation.
(§6) After that time, the crystals were removed and fixed with methanol on a slide and allowed to dry, after which DPX microscopy mounting medium (Panreac®) was added to it. Once the preparations had been mounted, they were dyed with Giemsa by diluting Azur-Eosin-Methylene Blue solution according to Giemsa DC (Code 251338) with Sorensen buffer (1:10 dilution). The preparations were covered and allowed to colour for 20 minutes, after which they were washed with distilled water and then allowed to drain and dry vertically. Finally, the amastigote forms were counted with the aim of immersion in a total of 200 cells.

[3] = system: L. infantum promastigote forms; assay: In vitro activity against extracellular (promastigote) forms; type: cell-based, Leishmania infantum; settings: for Selectivity Index (SI) L. infantum Promastigote forms: IC50 of macrophages / IC50 of parasite form; for IC50: Leishmania infantum, 72 h
Text: as §1, §2, §3, §4

[4] = system: L. donovani promastigote forms; assay: as above; type: cell-based, Leishmania donovani; settings: for Selectivity Index (SI) L. donvovani Promastigote forms: IC50 of macrophages / IC50 of parasite form; for IC50: Leishmania donovani, 72 h
Text: as §1, §2, §3, §4

[5] = Potentiometric titrations, protonation constants; type: physicochemical; settings: 0.15 M NaCl, 298.1 K
Protocol: FEM measurements. Potentiometric titrations were conducted at 298.1 ± 0.1 K using 0.15 M NaCl as the support electrolyte. The experimental procedure (burette, potentiometer, cell, stirrer, microcomputer, etc.) has been fully described elsewhere (E. García-Spain, M.-J. Ballester, F. Lloret, J.M. Moratal, J. Faus and A. Bianchi, J. Chem. Soc. Dalton Trans. 1988, 101-104). The FEM data acquisition was performed with the PASAT software (M. Fontanelli and M. Micheloni, Program for the automatic control of the microburette and the acquisition of the electromotor force readings (PASAT). Minutes of the 1st Spanish-Italian Congress of Thermodynamics of Metal Complexes, Peñíscola, Castellón, Spain, 1990). The reference electrode was an Ag/AgCl electrode in saturated KCI solution. The glass electrode was calibrated as a hydrogen ion concentration probe by titration of previously standardised amounts of HCl with CO2 free NaOH solutions and the equivalent point determined by Gran’s method ((a) G. Gran, Analyst 1952, 77, 661 -671; (b) F.J. Rossotti and H. Rossotti, J. Chem. Educ. 1965, 42, 375-378) providing the standard potential, Eº’, and the ionic product of water (pKw = 13.73 (1)).
Hyperquad software was used to calculate protonation and stability constants (P. Gans, A. Sabatini and A. Vacca, Talanta 1996, 43, 1739-1753). The pH range investigated was 2.5-11.0 and the concentration of the ligands varied from 1×10^-3 to 5×10^-3 M. The different titration curves for each system (at least two) were treated as a single set or as separate curves without significant variations in the values of the stability constants. Finally, the data sets were fused and treated simultaneously to give the final protonation constants (Table 1). For compounds 1, 7 and 9, two protonation constants have been detected in the pH range studied with values ranging from 5.51 to 9.68 logarithmic units. For the remaining compounds, three protonation constants have been measured with values ranging from 10.08 to 2.25 logarithmic units. All compounds have charge +1 at the physiological pH value of 7.4.

[6] = system: L. donovani amastigote forms; assay: In vitro activity against intracellular (amastigote) forms in macrophages; type: cell-based, Leishmania donovani; settings: for Selectivity Index (SI) L. donvovani Amastigote forms: IC50 of macrophages / IC50 of parasite form; for IC50: Leishmania donovani, Macrophage, 72 h
Text: as §1, §5, §6

Row | Structure (SMILES) | Selectivity Index (SI) L. brazilensis Promastigote forms [1] | IC50 [1] | Selectivity Index (SI) L. brazilensis Amastigote forms [2] | IC50 [2] | Selectivity Index (SI) L. infantum Promastigote forms [3] | IC50 [3] | Selectivity Index (SI) L. donvovani Promastigote forms [4] | IC50 [4] | Log β [5] | Logarithm of the protonation constant H+L ⇌ HL [5] | Logarithm of the protonation constant HL+H ⇌ H2L [5] | Selectivity Index (SI) L. donvovani Amastigote forms [6] | IC50 [6] | Logarithm of the protonation constant H2L+H ⇌ H3L [5]
1 | CNCCNCc1ccccn1 [Compound 1, 1-{2-pyridyl}-2,5-diazahexane] | 2 | 7.4 ± 0.6 µM | 2 | 5.7 ± 0.3 µM | 23 | 0.6 ± 0.2 µM | 2 | 7 ± 0.5 µM | 15.25(1) | 9.63(1) ^b | 5.62(1) | 1 | 8.9 ± 0.9 µM | 
2 | CNCCNCc1cccnc1 [Compound 2, 1-{3-pyridyl)-2,5-diazahexane] | 76 | 4.1 ± 0.2 µM | 20 | 15.8 ± 0.5 µM |  | 6.4 ± 0.6 µM | 26 | 11.7 ± 0.8 µM | 18.29(3) | 9.653(5) | 5.687(5) | 21 | 14.4 ± 0.1 µM | 2.95(2)
3 | CNCCNCc1ccncc1 [Compound 3, 1-{4-pyridyl)-2,5-diazahexane] | 16 | 14.3 ± 1 µM | 8 | 27.9 ± 1.2 µM | 18 | 12.6 ± 2.1 µM | 12 | 18.4 ± 0.8 µM | 18.60(1) | 9.503(5) | 5.713(5) |  | 5.1 ± 0.3 µM | 3.390(6)
4 | CN(C)CCNCc1ccccn1 [Compound 4, 1-(2-pyridyl)-5-methyl-2,5-diazahexane] | 33 | 37.3 ± 0.9 µM | 40 | 30.8 ± 1.3 µM | 43 | 28.6 ± 2.5 µM | 36 | 34.8 ± 1.5 µM | 16.88(2) | 9.06(1) ^b | 5.58(1) | 32 | 38.8 ± 1.4 µM | 2.25(2)
5 | CN(C)CCNCc1cccnc1 [Compound 5, 1-{3-pyridyl}-5-methyl-2,5-diazahexane] | 14 | 16.7 ± 0.5 µM | 11 | 20 ± 2 µM |  | 9.2 ± 0.7 µM | 11 | 21.7 ± 1.6 µM | 17.98(1) | 9.18(1) | 5.63(1) | 13 | 17.6 ± 0.7 µM | 3.16(1)
6 | CN(C)CCNCc1ccncc1 [Compound 6] | 9 | 52.5 ± 5.1 µM | 17 | 29.7 ± 2.5 µM | 8 | 63.3 ± 1.5 µM | 7 | 67.9 ± 5.3 µM | 17.22 (1) | 8.865(3) | 5.407(3) |  | 11.5 ± 1.3 µM | 2.956(6)
7 | CN(C)CCNCc1ccc2ccccc2n1 [Compound 7] | 4 | 105 ± 11.6 µM | 11 | 38.9 ± 2.7 µM | 5 | 84.4 ± 5.1 µM | 8 | 56.9 ± 2.7 µM | 14.63 (1) | 9.17(1) | 5.45(1) | 11 | 38.9 ± 3.2 µM | 
